The record followed here is patent US20220112479A1, “COMPOUNDS STABILIZING AMYLASES IN LIQUIDS” (BASF SE, priority 2018, published 2022).

What all share (assay type): biochemical
One experiment deals with Amy1=Stainzyme. Put plainly: amylase storage stability in liquid formulation (pNP release from Ethyliden-blocked-pNPG7). To be noted: storage at 37° C. More on the design: key: % of activity in reference formulation at time 0. The protocol:
(§1) The storage stability of amylase was assessed at 37° C. Base test formulations were manufactured by making base formulations I to V by mixing the components according to Table 1. Amylases used: Amy1=Stainzyme, Amy2=Amplify, Amy3=Stainzyme Plus L (12L) The respective component (a) or comparative compound was added, if applicable, to the respective base formulation in amounts as indicated in Table 1. The amount of amylase as provided in Table 1 refers to active protein. Water was added to accomplish the balance to 100. […] Amylase activity at certain points in time as indicated in Table 2 was measured quantitatively by the release of the chromophore para-nitrophenol (pNP) from the substrate ([…]-blocked-pNPG7, Roche Applied Science 10880078103). The alpha-amylase degrades the substrate into smaller molecules and α-glucosidase (Roche Applied Science 11626329103), which is present in excess compared to the amylase, process these smaller products until pNP is released; the release of pNP, measured via an increase of absorption at 405 nm, is directly proportional to the amylase activity of the sample. Amylase standard: […] 120 L (Sigma 3403). […] The amylolytic activity values provided were calculated referring to the value determined in the reference formulation at the time 0. The nomenclature of formulations is as follows: the Roman number before the full stop characterizes the base formulation, the Arabian number the type of compound (A.# compound according to invention (component (a)); B.# comparative compound).

Another experiment concerns the target T1, Savinase Ultra 16.0L (Lederbergia lenta, UniProt P29600).
T1 construct: purchased Sigma-Aldrich
T1 sequence (P29600 1-269): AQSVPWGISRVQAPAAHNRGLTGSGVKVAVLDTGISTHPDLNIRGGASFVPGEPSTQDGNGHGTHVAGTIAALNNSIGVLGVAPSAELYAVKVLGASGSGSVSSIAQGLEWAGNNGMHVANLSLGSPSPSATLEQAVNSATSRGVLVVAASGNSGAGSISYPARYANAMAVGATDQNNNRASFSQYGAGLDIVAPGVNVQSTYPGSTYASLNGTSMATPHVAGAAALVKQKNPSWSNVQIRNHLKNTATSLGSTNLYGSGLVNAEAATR
Put plainly: protease storage stability in liquid formulation (Suc-AAPF-pNA substrate). The note with it: storage at 37° C. On the procedure:
Base test formulations were manufactured by making base formulations I to V by mixing the components according to Table 1.
Protease used: (S) Savinase Ultra 16.0L (CAS-No. 9014-01-1, EC-No. 232-752-2) was purchased from Sigma-Aldrich
The respective component (a) or comparative compound was added, if applicable, to the respective base formulation in amounts as indicated in Table 1.
The amount of protease as provided in Table 1 refers to active protein.
Water was added to accomplish the balance to 100.
Protease activity at certain points in time as indicated in Table 3 was be determined by employing Succinyl-Ala-Ala-Pro-Phe-p-nitroanilide (Suc-AAPF-pNA, short AAPF) as substrate. pNA is cleaved from the substrate molecule by proteolytic cleavage, resulting in release of yellow color of free pNA which was determined by measuring […]. Measurements were done at 20° C.
The proteolytic activity values provided in Table 3 were calculated referring to the value determined in the reference formulation at the time 0.
The nomenclature of formulations is as follows: the Roman number before the full stop characterizes the base formulation, the Arabian number the type of salt (A.#inventive salt (component (a)); B.# comparative compound). Zero (“0”): no salt, but diethylene glycol.

For the next experiment, the system named is Amy2=Amplify. Put plainly: amylase storage stability in liquid formulation (pNP release from Ethyliden-blocked-pNPG7). Further details: key: % of activity in reference formulation at time 0. The note with it: base formulation III., 1.5 wt % component (a), storage at 37° C. The protocol: as §1
[1] abbreviates: base formulation IV., 2.0 wt % component (a), 3 d.
[2] abbreviates: base formulation IV., 2.0 wt % component (a), 7 d.
Setting [3] is: base formulation IV., 2.0 wt % component (a), 14 d.
[4] abbreviates: base formulation IV., 2.0 wt % component (a), 21 d.
The mark [5] stands for this setting: base formulation IV., 2.0 wt % component (a), 28 d.
Where [6] appears, read: base formulation IV., 2.0 wt % component (a), 42 d.
The mark [7] stands for this setting: base formulation IV., 2.0 wt % component (a), T0.
Setting [8] is: base formulation I., 1.5 wt % component (a), 3 d.
The mark [9] stands for this setting: base formulation I., 1.5 wt % component (a), 7 d.
[10] abbreviates: base formulation I., 1.5 wt % component (a), 14 d.
Setting [11] is: base formulation I., 1.5 wt % component (a), 21 d.
[12] abbreviates: base formulation I., 1.5 wt % component (a), 28 d.
[13] abbreviates: base formulation I., 1.5 wt % component (a), 42 d.
The mark [14] stands for this setting: base formulation I., 1.5 wt % component (a), T0.
[15] abbreviates: base formulation III., 1.5 wt % component (a), 3 d.
The mark [16] stands for this setting: base formulation III., 1.5 wt % component (a), 7 d.
The mark [17] stands for this setting: base formulation III., 1.5 wt % component (a), 14 d.
Where [18] appears, read: base formulation III., 1.5 wt % component (a), 21 d.
[19] abbreviates: base formulation III., 1.5 wt % component (a), 28 d.
Where [20] appears, read: base formulation III., 1.5 wt % component (a), 42 d.
Setting [21] is: base formulation III., 1.5 wt % component (a), T0.

For `CCCCOC(=O)CC(O)(CC(=O)OCCCC)C(=O)OCCCC` [A.3, Tributylcitrate], the “amylase activity, referring to reference formulation at time 0” value (from here on “amylase activity, referring”) with Amy1=Stainzyme (setting [1]) was determined as 95; in the experiment on Amy1=Stainzyme (setting [2]) it was 90; with Amy1=Stainzyme (setting [3]), 84; in the experiment with Amy1=Stainzyme (setting [4]) it was 77; in the experiment on Amy1=Stainzyme (setting [5]), 68; in the experiment on Amy1=Stainzyme (setting [6]), 57. For the same molecule, in the experiment with Amy1=Stainzyme (setting [7]), the “amylase activity, referring” value is listed as 98. Further, the “protease activity, referring to reference formulation at time 0” value (from here on “protease activity, referring”) on Savinase Ultra 16.0L (setting [1]) amounted to 98; on Savinase Ultra 16.0L (setting [2]) it was 90; at Savinase Ultra 16.0L (setting [3]), 85; on Savinase Ultra 16.0L (setting [4]), 78; at Savinase Ultra 16.0L (setting [5]) it was 70; on Savinase Ultra 16.0L (setting [6]), 67. Also, the “protease activity, referring” value at Savinase Ultra 16.0L (setting [7]) was 99.

Consider `CCCCOC(=O)CC(CC(=O)OCCCC)(OC(C)=O)C(=O)OCCCC` [A.4, Acetyltributylcitrate], for which the “protease activity, referring” value was determined as 100 at Savinase Ultra 16.0L (setting [8]); 94 at Savinase Ultra 16.0L (setting [9]); 90 on Savinase Ultra 16.0L (setting [10]); 84 at Savinase Ultra 16.0L (setting [11]); 82 at Savinase Ultra 16.0L (setting [12]); 70 on Savinase Ultra 16.0L (setting [13]). Further, the “protease activity, referring” value at Savinase Ultra 16.0L (setting [14]) is recorded as 102; at Savinase Ultra 16.0L (base formulation II., 1.5 wt % component (a), 3 d), 100; at Savinase Ultra 16.0L (base formulation II., 1.5 wt % component (a), 7 d), 95; at Savinase Ultra 16.0L (base formulation II., 1.5 wt % component (a), 14 d), 90; at Savinase Ultra 16.0L (base formulation II., 1.5 wt % component (a), 21 d), 85; at Savinase Ultra 16.0L (base formulation II., 1.5 wt % component (a), 28 d), 81. The “protease activity, referring” value on Savinase Ultra 16.0L (base formulation II., 1.5 wt % component (a), 42 d) is 70; at Savinase Ultra 16.0L (base formulation II., 1.5 wt % component (a), T0), 102; on Savinase Ultra 16.0L (setting [15]), 99; at Savinase Ultra 16.0L (setting [16]) it was 95; on Savinase Ultra 16.0L (setting [17]) it was 91; on Savinase Ultra 16.0L (setting [18]), 86. The “protease activity, referring” value at Savinase Ultra 16.0L (setting [19]) is listed as 81; at Savinase Ultra 16.0L (setting [20]), 70; at Savinase Ultra 16.0L (setting [21]), 101; on Savinase Ultra 16.0L (base formulation V., 2.0 wt % component (a), 3 d), 94; at Savinase Ultra 16.0L (base formulation V., 2.0 wt % component (a), 7 d), 90; on Savinase Ultra 16.0L (base formulation V., 2.0 wt % component (a), 14 d) it was 85. Besides, the “protease activity, referring” value on Savinase Ultra 16.0L (base formulation V., 2.0 wt % component (a), 21 d) came to 80; on Savinase Ultra 16.0L (base formulation V., 2.0 wt % component (a), 28 d), 76; at Savinase Ultra 16.0L (base formulation V., 2.0 wt % component (a), 42 d), 68; at Savinase Ultra 16.0L (base formulation V., 2.0 wt % component (a), T0), 98.

Monoethylcitrate [A.6]: the “amylase activity, referring” value in the experiment with Amy1=Stainzyme (setting [8]) amounted to 95; in the experiment on Amy1=Stainzyme (setting [9]) it was 84; in the experiment with Amy1=Stainzyme (setting [10]), 79; in the experiment on Amy1=Stainzyme (setting [11]), 70; in the experiment with Amy1=Stainzyme (setting [12]) it was 61; with Amy1=Stainzyme (setting [13]), 48. The “amylase activity, referring” value is on record as 98 in the experiment on Amy1=Stainzyme (setting [14]); 96 in the experiment on Amy2=Amplify (3 d); 90 in the experiment with Amy2=Amplify (7 d); 83 in the experiment on Amy2=Amplify (14 d); 74 in the experiment with Amy2=Amplify (21 d); 63 in the experiment with Amy2=Amplify (28 d). Moreover, the figures for the “amylase activity, referring” value in the experiment with Amy2=Amplify (42 d) and in the experiment with Amy2=Amplify (T0) were 49 and 97, respectively. Also, the “protease activity, referring” value came out at 94 on Savinase Ultra 16.0L (setting [8]); 90 at Savinase Ultra 16.0L (setting [9]); 81 at Savinase Ultra 16.0L (setting [10]); 73 at Savinase Ultra 16.0L (setting [11]); 67 at Savinase Ultra 16.0L (setting [12]); 56 on Savinase Ultra 16.0L (setting [13]). The “protease activity, referring” value on Savinase Ultra 16.0L (setting [14]) worked out at 100; at Savinase Ultra 16.0L (setting [15]), 94; on Savinase Ultra 16.0L (setting [16]), 90; on Savinase Ultra 16.0L (setting [17]), 84; on Savinase Ultra 16.0L (setting [18]) it was 78; on Savinase Ultra 16.0L (setting [19]) it was 70. The “protease activity, referring” value at Savinase Ultra 16.0L (setting [20]) was 62; at Savinase Ultra 16.0L (setting [21]), 100.
